According to US10351568B2, “Compositions and methods for enhancing proteasome activity” (President and Fellows of Harvard College, priority 2010, dated 2019):

Assays:
[1] = biological target: T1, Usp14/26S proteasome complexes (Homo sapiens, UniProt P54578); experiment: Ub-AMC hydrolysis by VS-proteasomes reconstituted with recombinant Usp14; assay type: biochemical
T1 construct: GST (N, cleaved yes); made in house; host or cells: E. coli Rosetta 2 (DE3) for Usp14
Protocol: Compounds were screened for Usp14/26S inhibition in 384-well low-volume plates in duplicate. Data processing was done by a robust Z-score method and each compound was plotted using Spotfire software. Compounds over the cut-off of Z>5 were mostly autofluorescent and were therefore not counted. To exclude quenching compounds that only affect AMC fluorescence, 312 primary hits were tested for quenching of AMC amine, and pure quenchers were scored as false-positives and excluded from further analysis (FIG. 8B).
The data plot of each experiment was fit into a four parameter logistic model (the Hill-slope model) based on guidelines from the NIH Chemical Genomics Center.

Usp14 = Usp14 (Homo sapiens, UniProt P54578); experiment: Mass spectrometry analysis of IU1 inhibited Usp14; assay type: binding
[2] = tested on: eight deubiquitinating enzymes of human origin; experiment: Deubiquitinase selectivity panel (Ub-AMC hydrolysis); assay type: biochemical; conditions: 17 μM
[3] = biological target: T2, proteasome-bound form of Uch37 (Homo sapiens, UniProt Q9Y5K5); experiment: Ub-AMC hydrolysis by 26S proteasomes not treated with Ub-VS (lacking Usp14); assay type: biochemical
T2 construct: endogenous in cells

Isopeptidase T (IsoT) = Isopeptidase T (IsoT) (Homo sapiens, UniProt P45974); experiment: Isopeptidase T deubiquitinase activity; assay type: biochemical; conditions: 8 μM, 17 μM
[4] = biological target: T3, Usp14 that had not been loaded onto a proteasome (Homo sapiens, UniProt P54578); experiment: Activity of Usp14 not complexed to the proteasome; assay type: biochemical
T3 construct: GST (N, cleaved yes); made in house; host or cells: E. coli Rosetta 2 (DE3)

[5] = biological target: T4, Usp14/proteasome complexes (Homo sapiens, UniProt P54578); experiment: Usp14 binding to purified proteasome (immunoblot); conditions: various concentrations of IU1
T4 construct: GST (N, cleaved yes); made in house; host or cells: E. coli Rosetta 2 (DE3) for Usp14
From the text: The asterisk (*) denotes a nonspecific signal generated by the anti-Usp14 antibody.

[6] = biological target: T4, Usp14/proteasome complexes; experiment: In vitro ubiquitin chain trimming assay with polyubiquitinated cyclin B; assay type: biochemical
Protocol: Immunoblot was performed using an antibody specific for human cyclin B (CCNB).
(§1) The effect of Usp14 on the degradation of ubiquitinated substrates was examined using an in vitro degradation assay using the ubiquitin-dependent proteasome substrate polyubiquitinated cyclin B (Ubn-ClnB).
To separate chain trimming from substrate degradation, these assays were done in the presence of proteasome inhibitors. The effectiveness of the proteasome inhibitors is evidenced by the accumulation of unmodified cyclin B in the assay (FIG. 15).

[7] = biological target: T5, Usp14-containing proteasomes (Homo sapiens, UniProt P54578); experiment: In vitro Ubn-ClnB degradation assay; assay type: biochemical
T5 construct: GST (N, cleaved yes); made in house; host or cells: E. coli Rosetta 2 (DE3) for Usp14
From the text: as §1
It was next tested whether IU1 could serve as an enhancer of substrate degradation by the proteasome.

[8] = Compound concentration in serum-containing media / release, 293 cells; assay type: in vitro ADME; conditions: 1 hr to 48 hr
Protocol: The experiment was performed as in FIG. 42A.

Tau = Tau degradation in MEF cells (immunoblot, RT-PCR); assay type: cell-based
From the text: No effect was seen on Tau mRNA levels (FIG. 21B).

TDP-43 = TDP-43 depletion in MEF cells (immunoblot); assay type: cell-based; conditions: 75 μM IU1
Protocol: (§2) Other proteins that have been implicated in proteotoxic mechanisms were also tested.

ataxin-3 = experiment: Ataxin-3 depletion in MEF cells (immunoblot); assay type: cell-based; conditions: 50 or 100 μM IU1
Protocol: as §2

[9] = tested on: glial fibrillary acidic protein (GFAP); experiment: GFAP depletion in MEF cells (immunoblot); assay type: cell-based; conditions: MEF cells, 25, 50 or 100 μM IU1
Protocol: as §2

GFP-ODC = experiment: Degradation of ubiquitin-independent proteasome substrate in cells; assay type: cell-based
Protocol: Proteasome inhibitors (30 μM MG132, 10 μM PS-341) were treated 4 hr before lysis.
as §2

oxidized proteins = experiment: Oxidized protein accumulation after menadione (DNPH immunoblot); assay type: cell-based; conditions: MEFs, 75 μM IU1 4 hours, then 63 μM menadione 45 minutes
From the text: Oxidized proteins form another class of proteasome substrates that play an important role in human health. Harmful oxidized proteins accumulate upon ageing and are implicated in a variety of age-related diseases and disorders (Stadtman (2006) Protein oxidation and aging. Free Radic. Res. 40, 1250-1258; Ahmed et al. (2007) Protein oxidative modifications and replicative senescence of WI-38 human embryonic fibroblasts. Ann. NY Acad. Sci., 1119, 88-96; Moskovitz et al. (2001). Methionine sulfoxide reductase (MsrA) is a regulator of antioxidant defense and lifespan in mammals. Proc. Nat. Acad. Sci. USA, […], 12920-12925.). Protein oxidation was induced by treating cells with menadione, and oxidized species were visualized using an antibody specific for protein carbonyls. […] The cells were lysed and lysates were incubated with DNPH and immunoblotted with anti-DNPH antibody to assay for oxidized proteins.

HEK293 cells = experiment: MTT cell survival upon menadione oxidative stress, HEK293; assay type: cell-based, human; conditions: 6 hr, menadione 4 hr
MEF cells [10] = experiment: MTT cell survival upon menadione oxidative stress, MEF; assay type: cell-based
From the text: The effect on the IC50 for menadione is almost 4-fold.

[11] = Hydrogen peroxide toxicity; assay type: cell-based; conditions: data not shown
[12] = tested on: MEF, HEK293 and HeLa cells; experiment: MTT cell viability assay; assay type: cell-based; conditions: MTT after 6, 12, 24 or 48 hours
Protocol: (§3) Effects on cell viability became apparent at concentrations over 100 μM, well above the doses required to enhance the degradation of Tau, TDP-43, ataxin-3, and oxidized proteins (FIGS. 21-23).

MEF cells [13] = experiment: TUNEL apoptosis assay; assay type: cell-based; conditions: 100 μM IU1, 6 hr
Protocol: as §3

MEFs and 293 cells = experiment: Cell proliferation by real-time microscopy (confluency); assay type: cell-based
proteasome = experiment: Proteasome integrity by native PAGE of total cell extracts; assay type: cell-based; conditions: 100 μM IU1, 6-hr
From the text: RP2-CP and RP-CP indicate distinct forms of the 26S proteasome.

murine Psmb5 promoter = experiment: Psmb5 promoter luciferase reporter in MEFs; assay type: cell-based; conditions: wild-type and Usp14−/− MEFs, 25 or 50 μM, 8 hr
Protocol: For normalization of luciferase activity, a control experiment using the promoter-less pGL3 plasmid was performed. Values are mean±SD from three independent experiments. RLU, relative light units.

UbB, α6, α7 = experiment: Quantitative RT-PCR of ubiquitin and proteasome subunit genes in MEFs; assay type: cell-based; conditions: +/+ and Usp14−/− MEFs, graded doses, 6 hr
[14] = Cellular entry, release and stability of compound (LC/MS, UV absorption)
From the text: Cell lysates were collected and ethyl acetate extraction was used to prepare mass spectrometer samples.

mCherry-NBR1 = mCherry-NBR1 immunofluorescence in wild-type MEFs; assay type: cell-based; conditions: 200 μM, 6 hr

Isopeptidase T (IsoT), sequence (P45974 whole entry): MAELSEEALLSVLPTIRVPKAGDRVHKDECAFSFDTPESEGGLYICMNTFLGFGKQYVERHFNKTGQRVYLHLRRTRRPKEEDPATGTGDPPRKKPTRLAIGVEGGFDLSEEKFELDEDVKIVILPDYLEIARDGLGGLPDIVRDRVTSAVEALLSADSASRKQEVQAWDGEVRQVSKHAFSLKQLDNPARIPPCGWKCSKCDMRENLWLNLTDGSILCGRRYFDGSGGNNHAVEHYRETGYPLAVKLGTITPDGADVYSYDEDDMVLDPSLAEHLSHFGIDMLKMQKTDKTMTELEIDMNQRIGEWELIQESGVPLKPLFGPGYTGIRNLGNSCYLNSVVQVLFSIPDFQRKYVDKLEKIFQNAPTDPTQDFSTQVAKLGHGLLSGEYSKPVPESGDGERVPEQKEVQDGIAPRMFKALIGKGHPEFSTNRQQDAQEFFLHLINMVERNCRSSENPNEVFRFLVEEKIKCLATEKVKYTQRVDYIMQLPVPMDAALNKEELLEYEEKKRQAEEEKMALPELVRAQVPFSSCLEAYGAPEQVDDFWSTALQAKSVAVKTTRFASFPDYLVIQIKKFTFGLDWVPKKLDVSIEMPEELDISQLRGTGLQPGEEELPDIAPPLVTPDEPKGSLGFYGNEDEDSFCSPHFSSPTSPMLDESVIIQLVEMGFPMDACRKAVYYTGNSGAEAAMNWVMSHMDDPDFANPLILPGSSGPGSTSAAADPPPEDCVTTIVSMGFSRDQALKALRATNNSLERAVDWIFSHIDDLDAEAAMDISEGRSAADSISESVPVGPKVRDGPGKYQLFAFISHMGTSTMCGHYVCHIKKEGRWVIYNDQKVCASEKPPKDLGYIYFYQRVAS
Usp14, sequence (P54578 whole entry): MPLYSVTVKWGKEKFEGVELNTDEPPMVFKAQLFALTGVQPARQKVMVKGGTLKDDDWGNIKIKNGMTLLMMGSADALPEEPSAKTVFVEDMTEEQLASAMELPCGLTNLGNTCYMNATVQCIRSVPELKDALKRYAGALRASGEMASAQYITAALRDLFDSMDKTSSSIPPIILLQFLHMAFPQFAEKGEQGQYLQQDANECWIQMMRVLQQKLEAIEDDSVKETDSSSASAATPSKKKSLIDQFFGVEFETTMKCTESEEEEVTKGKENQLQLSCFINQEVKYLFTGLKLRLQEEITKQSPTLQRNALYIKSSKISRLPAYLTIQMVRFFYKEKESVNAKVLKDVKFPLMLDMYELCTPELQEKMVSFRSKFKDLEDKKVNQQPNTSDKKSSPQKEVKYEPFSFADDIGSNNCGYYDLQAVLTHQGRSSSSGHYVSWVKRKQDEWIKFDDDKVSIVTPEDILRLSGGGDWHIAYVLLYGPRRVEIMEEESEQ
T3 sequence (P54578 whole entry): as above

Cc1cc(C(=O)CN2CCCC2)c(C)n1-c1ccc(F)cc1 [IU1, 1-[1-(4-fluorophenyl)-2,5-dimethlypyrrol-3-yl]-2-pyrrolidin-1-ylethanone]
lag period of inhibition ([1]; IU1 100 μM added 30 min after 1 μM Ub-AMC, 2.5 nM proteasome, 30 nM USP14): without a detectable lag period
reversibility of inhibition of Usp14 ([1]; activity after up to three ultrafiltration spins): rapidly reversible
inhibition of Usp14 deubiquitinase ([1]; proteasome-bound Usp14, Ub-AMC): potent inhibitor of proteasome-bound Usp14
covalent IU1-Usp14 adducts (Usp14): failed to detect any covalent IU1-Usp14 adducts
inhibition of other tested deubiquitinating enzymes [2]: failed to significantly inhibit
specificity for USP14 versus Ub-AMC concentration ([2]; lower concentrations of Ub-AMC): observed independently of Ub-AMC concentration
inhibition of proteasome-bound Uch37 [3]: does not inhibit
inhibition of Isopeptidase T (Isopeptidase T (IsoT)): lack of inhibition
inhibition of Usp14 not complexed to the proteasome [4]: failed to inhibit
effect on Usp14 complexing with the proteasome [5]: did not antagonize Usp14 complexing with the proteasome
concentration effective at inhibition of chain trimming ([6]; proteasome purified and assayed in presence of ADP): approximately 5 μM
chain trimming, Usp14/proteasome complexes ([6]; with Usp14, presence of proteasome inhibitors): reduced the chain trimming to a level similar to that of the proteasome complexes that lacked Usp14
release of ubiquitin chains from cyclin B, proteasomes that lack Usp14 ([6]; without Usp14, presence of proteasome inhibitors): little or no effect
degradation of Ub-cyclin B by Usp14-containing proteasomes ([7]; 34 μM IU1): stimulated the activity of Usp14-containing proteasomes
substrate degradation or chain trimming by proteasomes that lack Usp14 ([7]; 34 μM IU1): no effect
cyclin B degradation in the presence of USP14-CA ([7]; catalytically inactive USP14): does not affect cyclin B degradation
concentration in serum-containing media of HEK293 cells [8]: comparable concentration
Tau levels (Tau; MEF cells, 25 to 100 μM, 6 hours): reduced Tau levels at all concentrations tested
Tau mRNA levels (Tau; MEF cells, 25 to 100 μM, quantitative RT-PCR): No effect
dependence of Tau degradation stimulation on autophagy (Tau; wild-type MEF, 75 μM IU1 and/or BafA1, 6 hrs): not mediated by autophagy
TDP-43 level in cells (TDP-43): similarly depleted
ataxin-3 level in cells (ataxin-3): similarly depleted
GFAP level in cells [9]: similarly depleted
degradation of GFP-ODC (GFP-ODC): little or no effect
accumulation of oxidized proteins (oxidized proteins): reduced
effect on the IC50 for menadione (HEK293 cells; IU1 50 uM): ~4 fold
menadione toxicity (HEK293 cells; compound 50 uM): reduced this toxicity substantially
effect on cell survival upon oxidative stress (MEF cells [10]): show this effect as well
hydrogen peroxide toxicity [11]: reduced the toxicity
concentration at which effects on cell viability became apparent [12]: over 100 μM
induction of apoptosis (MEF cells [13]): did not noticeably induce apoptosis
inhibition of cellular proliferation at 120 μM (MEFs and 293 cells; 120 μM): only a slight inhibition
inhibition of cellular proliferation at lower concentrations (MEFs and 293 cells; below 120 μM): no apparent inhibition
integrity of proteasome (proteasome): does not affect the integrity of proteasome
transcription of Psmb5 gene (murine Psmb5 promoter): does not induce the transcription
transcription of UbB (UbB, α6, α7): does not induce the transcription
transcription of α6 (UbB, α6, α7): does not induce the transcription
transcription of α7 (UbB, α6, α7): does not induce the transcription
time to reach steady-state concentration within cells ([14]; 50 μM added to medium, MEFs): ≤ 1 h
steady-state concentration within cells ([14]; 50 μM added to medium, MEFs, LC/MS): ~19 µM
release of internalized compound from wild-type MEF cells ([14]; 50 μM for one hour, then fresh media): rapid release
concentration in serum-containing media of Usp14−/− MEF cells ([14]; 1 hr to 48 hr): comparable concentration

CO/C1=C\C(C)=C\[C@@H](C)[C@@H](O)[C@@H](C)C/C(C)=C/C=C/[C@H](OC)[C@@H]([C@@H](C)[C@@H](O)[C@H](C)[C@@]2(O)C[C@@H](O)[C@H](C)[C@@H](C(C)C)O2)OC1=O [bafilomycin A1]
immunofluorescence signal of mCherry-NBR1 (mCherry-NBR1): significantly increased
